Data on 26 compounds can be found in PubChem BioAssay AID330 (DTP/NCI, 2004).

For this assay, the system named is P388 leukemia ip, CD2F1 mice, survival T/C. Description: NCI In Vivo Anticancer Drug Screen. Data for tumor model P388 Leukemia (intraperitoneal) in CD2F1 (CDF1) mice. To be noted: endpoint: median survival time, higher = longer survival. In a few lines:
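Mice carrying the transplanted tumor received test compound or vehicle. Survival was recorded in each group, and the value is the treated-group measurement divided by that of the vehicle-treated control group.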

The mark [1] stands for this setting: dose: 100.0 mg/kg/injection, schedule: Q01DX009 (ip), vehicle: saline with Tween-80.
Where [2] appears, read: dose: 200.0 mg/kg/injection, schedule: Q01DX009 (ip), vehicle: saline with Tween-80.
Setting [3] is: dose: 50.0 mg/kg/injection, schedule: Q01DX009 (ip), vehicle: saline with Tween-80.
Where [4] appears, read: dose: 50.0 mg/kg/injection, schedule: Q01DX005 (ip), vehicle: Klucel (hydroxypropylcellulose) (HPC).
Setting [5] is: dose: 100.0 mg/kg/injection, schedule: Q01DX005 (ip), vehicle: Klucel (hydroxypropylcellulose) (HPC).
Setting [6] is: dose: 200.0 mg/kg/injection, schedule: Q01DX005 (ip), vehicle: Klucel (hydroxypropylcellulose) (HPC).
Where [7] appears, read: dose: 240.0 mg/kg/injection, schedule: Q01DX005 (ip), vehicle: saline with Tween-80.
Setting [8] is: dose: 60.0 mg/kg/injection, schedule: Q01DX005 (ip), vehicle: saline with Tween-80.
[9] abbreviates: dose: 120.0 mg/kg/injection, schedule: Q01DX005 (ip), vehicle: saline with Tween-80.
Setting [10] is: dose: 50.0 mg/kg/injection, schedule: Q01DX005 (ip), vehicle: saline with Tween-80.
The mark [11] stands for this setting: dose: 100.0 mg/kg/injection, schedule: Q01DX005 (ip), vehicle: saline with Tween-80.
Setting [12] is: dose: 200.0 mg/kg/injection, schedule: Q01DX005 (ip), vehicle: saline with Tween-80.

Structures are written as SMILES. “And” between values parts separate entries of the source, which are not always exact repeats. Identical values can stand only once. Toxic doses and inconclusive results are not listed.

As to `Cc1cc(O)c(N=Nc2ccc(C(=O)O)cc2)cc1C`, the T/C under setting [1] is 100 % of control; the T/C (dose: 100.0 mg/kg/injection, schedule: Q04DX003 (ip), vehicle: saline with Tween-80) is 90 % of control; the T/C under setting [2] is 95 % of control; the T/C (dose: 400.0 mg/kg/injection, schedule: Q01DX009 (ip), vehicle: saline with Tween-80) is 95 % of control; the T/C (dose: 400.0 mg/kg/injection, schedule: Q04DX003 (ip), vehicle: saline with Tween-80) is 90 % of control.

For `Cc1cccc(N=C(C2=C(O)c3ccccc3C2=O)c2ccccc2)c1`, the T/C was 100 % of control (dose: 25.0 mg/kg/injection, schedule: Q04DX002 (ip), vehicle: saline with Tween-80); 97 % of control (dose: 50.0 mg/kg/injection, schedule: Q04DX002 (ip), vehicle: saline with Tween-80); 98 % of control (dose: 100.0 mg/kg/injection, schedule: Q04DX002 (ip), vehicle: saline with Tween-80); 92 % of control (dose: 200.0 mg/kg/injection, schedule: Q04DX002 (ip), vehicle: saline with Tween-80); 97 % of control (dose: 400.0 mg/kg/injection, schedule: Q04DX002 (ip), vehicle: saline with Tween-80).

As for `C(=N\NC1=NCCN1)/c1ccncc1`, the T/C by setting is: (dose: 50.0 mg/kg/injection, schedule: Q01DX005 (ip), vehicle: saline) 100 % of control; (dose: 100.0 mg/kg/injection, schedule: Q01DX005 (ip), vehicle: saline) 94 % of control.

In the case of `CCCCC(CC)COC1CCS(=O)(=O)C1` (centres undefined), the T/C reads like this: under setting [3], 100 % of control; under setting [1], 101 % of control; under setting [2], 95 % of control.

Take `O=C1c2ccccc2C(=O)N1Cc1ccccc1Br`: the T/C is, setting by setting: under setting [4], 103 % of control; under setting [5], 101 % of control; under setting [6], 100 % of control.

For `CC(C)N=Cc1ccccc1O.CC(C)N=Cc1ccccc1O.[Zn]`, the T/C reads like this: (dose: 25.0 mg/kg/injection, schedule: Q04DX003 (ip), vehicle: saline sonified) 100 % of control; (dose: 50.0 mg/kg/injection, schedule: Q04DX003 (ip), vehicle: saline sonified) 100 % of control; (dose: 100.0 mg/kg/injection, schedule: Q04DX003 (ip), vehicle: saline sonified) 104 % of control.

As to `c1ccc(Nc2nnc(-c3ccc4c(c3)OCO4)o2)cc1`, the T/C was 91 % of control under setting [4], 92 % of control under setting [5] and 100 % of control under setting [6].

In the case of `C[P+](CCOC(=O)NC(Cc1ccccc1)C(=O)O)(c1ccccc1)c1ccccc1` (centres undefined), the T/C under setting [3] was 94 % of control and the T/C under setting [1] is 103 % of control.

On to `C1COCCOCCOCCOCCO1.[Br][Sn]([Br])([Br])[Br]`, for which the T/C is 96 % of control (dose: 7.5 mg/kg/injection, schedule: Q01DX005 (ip), vehicle: Klucel (hydroxypropylcellulose) (HPC)); 102 % of control (dose: 15.0 mg/kg/injection, schedule: Q01DX005 (ip), vehicle: Klucel (hydroxypropylcellulose) (HPC)); 105 % of control (dose: 30.0 mg/kg/injection, schedule: Q01DX005 (ip), vehicle: Klucel (hydroxypropylcellulose) (HPC)).

As to `COc1ccc(C2c3cc4c(cc3OC(N3CCCC3)C2C)OCO4)cc1` (centres undefined), the T/C runs as follows: (dose: 7.5 mg/kg/injection, schedule: Q01DX005 (ip), vehicle: saline with Tween-80) 90 % of control; (dose: 15.0 mg/kg/injection, schedule: Q01DX005 (ip), vehicle: saline with Tween-80) 90 % of control; (dose: 30.0 mg/kg/injection, schedule: Q01DX005 (ip), vehicle: saline with Tween-80) 94 % of control; under setting [7], 90 % of control.

As for `CCOC(=O)C(NC(C)=O)(C(=O)OCC)C1CCCCC1=O` (centres undefined), the T/C (dose: 60.0 mg/kg/injection, schedule: Q01DX005 (ip), vehicle: saline) is 108 % of control; the T/C (dose: 120.0 mg/kg/injection, schedule: Q01DX005 (ip), vehicle: saline) was 96 % of control; the T/C (dose: 240.0 mg/kg/injection, schedule: Q01DX005 (ip), vehicle: saline) was 99 % of control.

Regarding `CC1=C2C(=C[C@@](C)(CO)[C@@H]2O)C(=O)[C@](C)(O)C12CC2`, the T/C is, setting by setting: (dose: 0.05 mg/kg/injection, schedule: Q01DX010 (ip), vehicle: saline) 109 % of control; (dose: 0.1 mg/kg/injection, schedule: Q01DX010 (ip), vehicle: saline) 118 % of control; (dose: 0.8 mg/kg/injection, schedule: Q01DX010 (ip), vehicle: saline) 95 % of control.

`C/C=C(\C)C(=O)O[C@@H]1[C@H]2C(C)=CC(=O)[C@@H](O)[C@]2(C)[C@H]2[C@@]3(O)OC[C@@]24[C@@H]1OC(=O)C[C@H]4[C@@H](C)[C@H]3O`: the T/C by setting is: (dose: 0.25 mg/kg/injection, schedule: Q01DX009 (ip), vehicle: other) 111 % of control; (dose: 0.6 mg/kg/injection, schedule: Q01DX009 (ip), vehicle: other) 163 % of control.

In the case of `C1=CCC2CSCC2C1` (centres undefined), the T/C is 100 % of control (dose: 37.5 mg/kg/injection, schedule: Q01DX001 (ip), vehicle: saline sonified) and 105 % of control (dose: 75.0 mg/kg/injection, schedule: Q01DX001 (ip), vehicle: saline sonified).

Take `COc1cccc(C2SCC(=O)N2c2nncs2)c1[N+](=O)[O-]` (centres undefined): the T/C by setting is: under setting [8], 110 % of control; under setting [9], 100 % of control; under setting [7], 91 % of control.

For the compound `Nc1ccc(O)c2c1C(=O)c1c(O)ccc(N)c1C2=O`, the T/C is 100 % of control under setting [4], 105 % of control under setting [5] and 87 % of control under setting [6].

As to `BrCc1ccccc1C[P+](c1ccccc1)(c1ccccc1)c1ccccc1`, the T/C is, setting by setting: (dose: 1.5 mg/kg/injection, schedule: Q01DX009 (ip), vehicle: saline) 113 % of control; (dose: 3.13 mg/kg/injection, schedule: Q01DX009 (ip), vehicle: saline) 104 % of control.

`CC1=CC(=O)C=C(C)C1=O`: the T/C is 106 % of control (dose: 1.56 mg/kg/injection, schedule: Q04DX003 (ip), vehicle: saline with Tween-80); 89 % of control (dose: 3.12 mg/kg/injection, schedule: Q04DX003 (ip), vehicle: saline with Tween-80); 103 % of control (dose: 6.25 mg/kg/injection, schedule: Q04DX003 (ip), vehicle: saline with Tween-80).

Turning to `CCCCN(CCCC)CC(O)c1c(Cl)c2ccccc2c2ccccc12` (centres undefined), the T/C runs as follows: (dose: 25.0 mg/kg/injection, schedule: Q01DX009 (ip), vehicle: saline with Tween-80) 100 % of control; under setting [3], 93 % of control; under setting [1], 100 % of control.

As for `BrN=C1C=CC(=NBr)C=C1`, the T/C is, setting by setting: under setting [10], 100 % of control (2×) and 106 % of control; under setting [11], 101 % of control and 106 % of control and 91 % of control; under setting [12], 101 % of control and 106 % of control and 120 % of control; (dose: 400.0 mg/kg/injection, schedule: Q01DX005 (ip), vehicle: saline with Tween-80) 89 % of control and 90 % of control.

Take `CCOC(=O)C1(C(=O)OCC)C(C)CC(=O)N1c1ccccc1OC` (centres undefined): the T/C is 104 % of control under setting [8], 100 % of control under setting [9] and 95 % of control under setting [7].

On to `[Se]=P(N1CC1)(N1CC1)N1CC1`, for which the T/C is, setting by setting: (dose: 13.75 mg/kg/injection, schedule: Q01DX001 (ip), vehicle: Klucel (hydroxypropylcellulose) (HPC)) 119 % of control; (dose: 27.5 mg/kg/injection, schedule: Q01DX001 (ip), vehicle: Klucel (hydroxypropylcellulose) (HPC)) 155 % of control.

Consider `CC(CCC(=O)O)(c1ccc(OC(=O)Nc2ccc(Br)cc2)cc1)c1ccc(OC(=O)Nc2ccc(Br)cc2)cc1`, for which the T/C is, setting by setting: under setting [10], 102 % of control; under setting [11], 97 % of control; under setting [12], 100 % of control.

For `CN(c1ncc(Cc2cnc(N(C)C3CCN(Cc4ccccc4)CC3)nc2)cn1)C1CCN(Cc2ccccc2)CC1`, the T/C is 93 % of control under setting [10], 96 % of control under setting [11] and 92 % of control under setting [12].

Regarding `NC1=NC(=O)C(c2ccccc2)S1` (centres undefined), the T/C is 103 % of control (dose: 12.5 mg/kg/injection, schedule: Q01DX009 (ip), vehicle: Klucel (hydroxypropylcellulose) (HPC)); 99 % of control (dose: 25.0 mg/kg/injection, schedule: Q01DX009 (ip), vehicle: Klucel (hydroxypropylcellulose) (HPC)); 113 % of control (dose: 50.0 mg/kg/injection, schedule: Q01DX009 (ip), vehicle: Klucel (hydroxypropylcellulose) (HPC)); 105 % of control (dose: 100.0 mg/kg/injection, schedule: Q01DX009 (ip), vehicle: Klucel (hydroxypropylcellulose) (HPC)).

On to `CCOc1ccc(C(C[N+](=O)[O-])Sc2ccccc2N)cc1` (centres undefined), for which the T/C by setting is: under setting [8], 97 % of control; under setting [9], 106 % of control; under setting [7], 113 % of control.
